Experimental data as given in patent US20090048301A1 (IMCLONE SYSTEMS INCORPORATED, priority 2003, published 2009).
Where two headings read alike, the source gives them in different places.

What was measured:
bovine tubulin = assay: In vitro tubulin polymerization assay (turbidity at 340 nm); assay type: biochemical; conditions: 10 μM compound, 30 minute data point, vs 1% DMSO control
In short: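 Bovine tubulin (97%, <3% MAPs) at 3 mg/ml final in G-PEM pH 7 with 1 mM GTP and 5% glycerol, added cold to compound wells at 37° C (1% DMSO final). A340 read each minute for 30 min; percent inhibition from 30-min point versus DMSO control.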

[1] = tested on: A431, human epidermoid carcinoma cells; assay: Cell cycle analysis (FACS), mitotic arrest in G2/M; assay type: cell-based; conditions: read-out: FACS Assay: concentration required to achieve inhibition in FACS assay
In short: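 A431 cells, 500,000/well at treatment, exposed to compounds at 0.01–1 μM final (0.1% DMSO) for 24 h. Ethanol-fixed cells RNase-treated (1 μg/ml, 37° C., 15 min), stained with propidium iodide (50 μg/ml, 30 min, RT). DNA ploidy by flow cytometry; mitotic arrest scored as G2/M accumulation.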

| Structure (SMILES) | Tubulin Assay: percent inhibition at 10 μM based on 30 minute data (bovine tubulin) [%] | minimal effective concentration ([1]; Homo sapiens, A-431, 24 h) [µM] | minimal effective concentration ([1]; 24 hours) [µM] |
| --- | --- | --- | --- |
| c1cnc(NCc2ccc3c(c2)OCCO3)c(-c2nnc(Nc3ccc4c(c3)OCO4)o2)c1 [Compound 196, {3-[5-(Benzo[1,3]dioxol-5-ylamino)-[1,3,4]oxadiazol-2-yl]-pyridin-2-yl}-(2,3-dihydro-benzo[1,4]dioxin-6-ylmethyl)-amine] | 93 | 1 |  |
| COc1cc(Nc2nnc(-c3cccnc3NCc3ccco3)o2)cc(OC)c1OC [Compound 197, Furan-2-ylmethyl-{3-[5-(3,4,5-H trimethoxy-phenylamino)-[1,3,4]oxadiazol-2-yl]-pyridin-2-yl}-amine] | 66 | 1 |  |
| c1cnc(NCc2ccc3c(c2)CCO3)c(-c2nnc(Nc3ccc4c(c3)OCO4)o2)c1 [Compound 198, {3-[5-(Benzo[1,3]dioxol-5-ylamino)-[1,3,4]oxadiazol-2-yl]-pyridin-2-yl}-(2,3-dihydro-benzofuran-5-ylmethyl)-amine] | 87 | 0.1 |  |
| c1cnc(NCc2ccc3c(c2)CCO3)c(-c2nnc(Nc3ccc4c(c3)OCCO4)o2)c1 [Compound 199, {3-[5-(2,3-Dihydro-benzo[1,4]dioxin-6-ylamino)-[1,3,4]oxadiazol-2-yl]-pyridin-2-yl}-(2,3-dihydro-benzofuran-5-ylmethyl)-amine] | 88 | 0.1 |  |
| c1cnc(NCC2COCCO2)c(-c2nnc(Nc3ccc4c(c3)OCO4)o2)c1 (centres unmarked) [Compound 202, {3-[5-(Benzo[1,3]dioxol-5-ylamino)-[1,3,4]oxadiazol-2-yl]-pyridin-2-yl}-[1,4]dioxan-2-ylmethyl-amine] | 89 | 0.1 |  |
| c1cnc(NCC2COCCO2)c(-c2nnc(Nc3ccc4c(c3)OCCO4)o2)c1 (centres unmarked) [Compound 203, {3-[5-(2,3-Dihydro-benzo[1,4]dioxin-6-ylamino)-[1,3,4]oxadiazol-2-yl]-pyridin-2-yl}-[1,4]dioxan-2-ylmethyl-amine] | 69 | 0.1 |  |
| c1coc(CNc2ncccc2-c2nnc(Nc3ccc4c(c3)OCCO4)o2)c1 [Compound 205, {3-[5-(2,3-Dihydro-benzo[1,4]dioxin-6-ylamino)-[1,3,4]oxadiazol-2-yl]-pyridin-2-yl}-furan-2-ylmethyl-amine] | 56 |  | 1 |
| c1cnc(NCc2ccncc2)c(-c2nnc(Nc3ccc4c(c3)OCCO4)o2)c1 [Compound 206, {3-[5-(2,3-Dihydro-benzo[1,4]dioxin-6-ylamino)-[1,3,4]oxadiazol-2-yl]-pyridin-2-yl}-pyridin-4-ylmethyl-amine] | 94 | 0.025 |  |
| c1ccc(CNc2ncccc2-c2nnc(Nc3ccc4c(c3)OCCO4)o2)nc1 [Compound 207, {3-[5-(2,3-Dihydro-benzo[1,4]dioxin-6-ylamino)-[1,3,4]oxadiazol-2-yl]-pyridin-2-yl}-pyridin-2-ylmethyl-amine] | 87 | 0.025 |  |
| c1cnc(OCc2ccc3c(c2)OCO3)c(-c2nnc(Nc3ccc4c(c3)OCCO4)o2)c1 [Compound 209, {5-[2-(Benzo[1,3]dioxol-5-ylmethoxy)-pyridin-3-yl]-[1,3,4]oxadiazol-2-yl}-(2,3-dihydro-benzo[1,4]dioxin-6-yl)-amine] | 80 | 1 |  |
| Brc1cnn(-c2ncccc2-c2nnc(Nc3ccc4c(c3)OCO4)o2)c1 [Compound 210, Benzo[1,3]dioxol-5-yl-{5-[2-(4-bromo-pyrazol-1-yl)-pyridin-3-yl]-[1,3,4]oxadiazol-2-yl}-amine] | 87 | 1 |  |
| c1cncc(CNc2ccccc2-c2nnc(Nc3ccc4c(c3)OCCO4)o2)c1 [Compound 216, (2,3-Dihydro-benzo[1,4]dioxin-6-yl)-(5-{2-[(pyridin-3-ylmethyl)-amino]-phenyl}-[1,3,4]oxadiazol-2-yl)-amine] | 94 | 0.1 |  |
| c1ccc(CNc2ccccc2-c2nnc(Nc3ccc4c(c3)OCCO4)o2)nc1 [Compound 217, (2,3-Dihydro-benzo[1,4]dioxin-6-yl)-(5-{2-[(pyridin-2-ylmethyl)-amino]-phenyl}-[1,3,4]oxadiazol-2-yl)-amine] | 100 | 0.1 |  |
| c1ccc(-c2nnc(Nc3ccc4c(c3)OCCO4)o2)c(NCc2ccc3c(c2)OCO3)c1 [Compound 218, (5-{2-[(Benzo[1,3]dioxol-5-ylmethyl)-amino]-phenyl}-[1,3,4]oxadiazol-2-yl)-(2,3-dihydro-benzo[1,4]dioxin-6-yl)-amine] | 74 | 0.1 |  |
| COc1cc(CNc2ccccc2-c2nnc(Nc3ccc4c(c3)OCCO4)o2)cc(OC)c1 [Compound 219, (2,3-Dihydro-benzo[1,4]dioxin-6-yl)-{5-[2-(3,5-dimethoxy-benzylamino)-phenyl]-[1,3,4]oxadiazol-2-yl}-amine] | 63 | 0.1 |  |
| c1ccc(-c2nnc(Nc3ccc4c(c3)OCO4)o2)c(NCc2cn[nH]c2)c1 [Compound 224, Benzo[1,3]dioxol-5-yl-(5-{2-[(1H-pyrazol-4-ylmethyl)-amino]-phenyl}-[1,3,4]oxadiazol-2-yl)-amine] | 81 | 1 |  |
| COc1cccc(S(=O)(=O)Nc2ccccc2-c2nnc(Nc3ccc4c(c3)OCO4)o2)c1 [Compound 237, N-{2-[5-(Benzo[1,3]dioxol-5-ylamino)-[1,3,4]oxadiazol-2-yl]-phenyl}-3-methoxy-benzenesulfonamide] | 99 | 1 |  |
| Nc1ccccc1-c1nnc(Nc2ccc3c(c2)OCCO3)o1 [Compound 241, [5-(2-Amino-phenyl)-[1,3,4]oxadiazol-2-yl]-(2,3-dihydro-benzo[1,4]dioxin-6-yl)-amine] | 75 | 1 |  |
| c1ccc(-c2cnc(Nc3ccc4c(c3)OCCO4)o2)c(NCc2ccc3c(c2)OCO3)c1 [Compound 244, (5-{2-[(Benzo[1,3]dioxol-5-ylmethyl)-amino]-phenyl}-oxazol-2-yl)-(2,3-dihydro-benzo[1,4]dioxin-6-yl)-amine] | 96 | 1 |  |
| COc1cc(CNc2ccccc2-c2cnc(Nc3ccc4c(c3)OCCO4)o2)cc(OC)c1 [Compound 246, (2,3-Dihydro-benzo[1,4]dioxin-6-yl)-{5-[2-(3,5-dimethoxy-benzylamino)-phenyl]-oxazol-2-yl}-amine] | 72 | 1 |  |
| COc1cccc(Nc2ncc(-c3ccccc3NCc3ccc4c(c3)OCO4)o2)c1 [Compound 249, (5-{2-[(Benzo[1,3]dioxol-5-ylmethyl)-amino]-phenyl}-oxazol-2-yl)-(3-methoxy-phenyl)-amine] | 60 | 1 |  |
| COc1cccc(Nc2ncc(-c3ccccc3NCc3ccc4c(c3)OCCO4)o2)c1 [Compound 250, (5-{2-[(2,3-Dihydro-benzo[1,4]dioxin-6-ylmethyl)-amino]-phenyl}-oxazol-2-yl)-(3-methoxy-phenyl)-amine] | 60 | 1 |  |
